Source: patent US9302999B2, “Substituted triazoles as herbicides” (E. I. DU PONT DE NEMOURS AND COMPANY, priority 2012, dated 2016)

Columns and labels:
Format in all cases: in vivo
[1] = tested on: wheat (Triticum aestivum); assay: Test A pre-/postemergence: wheat; conditions: for Wheat plant response rating: Postemergence; for Plant response rating, Wheat: Preemergence
Summary of the method: (§1)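 Plants in loam–sand blend were treated with test chemicals in non-phytotoxic solvent with surfactant, either as preemergence directed soil spray or postemergence at 2–10 cm, one- to two-leaf stage. After about ten days in greenhouse, injury was rated visually against untreated controls on a 0–100 scale (100 = complete control).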

corn (Zea mays) = assay: Test A pre-/postemergence: corn; conditions: for Corn plant response rating: Postemergence; for Plant response rating, Corn: Preemergence
Summary of the method: as §1

[2] = tested on: foxtail, giant (giant foxtail, Setaria faberii); assay: Test A pre-/postemergence: foxtail, giant; conditions: for Foxtail, Giant plant response rating: Postemergence; for Plant response rating, Foxtail, Giant: Preemergence
Summary of the method: as §1

[3] = tested on: barnyardgrass (Echinochloa crus-galli); assay: Test C flooded paddy test: barnyardgrass; conditions: scale 0 to 100 (0 no effect, 100 complete control)
Summary of the method: (§2)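 Rating: visual, 0–100 (100 = complete control), versus untreated controls after 13 to 15 greenhouse days. Treatment went into paddy water held at 3 cm over the soil, on plants grown to two leaves.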

[4] = tested on: sedge, umbrella (small-flower umbrella sedge, Cyperus difformis); assay: Test C flooded paddy test: sedge, umbrella; conditions: scale 0 to 100 (0 no effect, 100 complete control)
Summary of the method: as §2

[5] = tested on: morningglory (Ipomoea spp.); assay: Test A pre-/postemergence: morningglory; conditions: for Morningglory plant response rating: Postemergence; for Plant response rating, Morningglory: Preemergence
Summary of the method: as §1

rice (Oryza sativa) = assay: Test C flooded paddy test: rice; conditions: scale 0 to 100 (0 no effect, 100 complete control)
Summary of the method: as §2

[6] = tested on: ducksalad (Heteranthera limosa); assay: Test C flooded paddy test: ducksalad; conditions: scale 0 to 100 (0 no effect, 100 complete control)
Summary of the method: as §2

[7] = tested on: crabgrass, large (large crabgrass, Digitaria sanguinalis); assay: Test A pre-/postemergence: crabgrass, large; conditions: for Crabgrass, Large plant response rating: Postemergence; for Plant response rating, Crabgrass, Large: Preemergence
Summary of the method: as §1

[8] = tested on: velvetleaf (Abutilon theophrasti); assay: Test A pre-/postemergence: velvetleaf; conditions: for Velvetleaf plant response rating: Postemergence; for Plant response rating, Velvetleaf: Preemergence
Summary of the method: as §1

[9] = tested on: pigweed (Amaranthus retroflexus); assay: Test A pre-/postemergence: pigweed; conditions: for Pigweed plant response rating: Postemergence; for Plant response rating, Pigweed: Preemergence
Summary of the method: as §1

[10] = tested on: barnyardgrass (Echinochloa crus-galli); assay: Test A pre-/postemergence: barnyardgrass; conditions: for Barnyardgrass plant response rating: Postemergence; for Plant response rating, Barnyardgrass: Preemergence
Summary of the method: as §1

[11] = 125 g ai/ha, 0 to 100 scale, 0 is no effect, 100 is complete control
[12] = 500 g ai/ha, visual rating on 0 to 100 scale (0 no effect, 100 complete control), approximately ten days
[13] = 125 g ai/ha, 0 to 100 scale (0 no effect, 100 complete control)
[14] = 500 g ai/ha, 0 to 100 scale, 0 is no effect, 100 is complete control
[15] = Flood (flooded paddy test), 62 g ai/ha, visual rating after 13 to 15 days
[16] = Flood (flooded paddy test), 125 g ai/ha, visual rating after 13 to 15 days
[17] = Flood (flooded paddy test), 250 g ai/ha, visual rating after 13 to 15 days

## Cc1nn(-c2ccc(C(F)(F)F)cc2)nc1Oc1cnn(CC(F)(F)F)c1 [Compound 74]
[1]; [11]
  Wheat plant response rating: 0
[1]; [12]
  Wheat plant response rating: 0
[1]; [13]
  Plant response rating, Wheat: 0
[1]; [14]
  Plant response rating, Wheat: 0
Corn (Zea mays); [11]
  Corn plant response rating: 0
Corn (Zea mays); [12]
  Corn plant response rating: 0
Corn (Zea mays); [13]
  Plant response rating, Corn: 0
Corn (Zea mays); [14]
  Plant response rating, Corn: 0
[2]; [11]
  Foxtail, Giant plant response rating: 0
[2]; [12]
  Foxtail, Giant plant response rating: 0
[2]; [13]
  Plant response rating, Foxtail, Giant: 0
[2]; [14]
  Plant response rating, Foxtail, Giant: 0
[3]; [15]
  Plant response rating, Barnyardgrass: 0
[3]; [16]
  Plant response rating, Barnyardgrass: 0
[3]; [17]
  Plant response rating, Barnyardgrass: 0
[3]; Flood, 31 g ai/ha
  Plant response rating, Barnyardgrass: 0
[4]; [15]
  Plant response rating, Sedge, Umbrella: 0
[4]; [16]
  Plant response rating, Sedge, Umbrella: 0
[4]; [17]
  Plant response rating, Sedge, Umbrella: 0
[4]; Flood, 31 g ai/ha
  Plant response rating, Sedge, Umbrella: 0
[5]; [11]
  Morningglory plant response rating: 0
[5]; [12]
  Morningglory plant response rating: 0
[5]; [13]
  Plant response rating, Morningglory: 0
[5]; [14]
  Plant response rating, Morningglory: 0
Rice (Oryza sativa); [15]
  Plant response rating, Rice: 0
Rice (Oryza sativa); [16]
  Plant response rating, Rice: 0
Rice (Oryza sativa); [17]
  Plant response rating, Rice: 0
Rice (Oryza sativa); Flood, 31 g ai/ha
  Plant response rating, Rice: 0
[6]; [15]
  Plant response rating, Ducksalad: 0
[6]; [16]
  Plant response rating, Ducksalad: 0
[6]; [17]
  Plant response rating, Ducksalad: 0
[6]; Flood, 31 g ai/ha
  Plant response rating, Ducksalad: 0
[7]; [11]
  Crabgrass, Large plant response rating: 0
[7]; [12]
  Crabgrass, Large plant response rating: 0
[7]; [13]
  Plant response rating, Crabgrass, Large: 0
[7]; [14]
  Plant response rating, Crabgrass, Large: 0
[8]; [11]
  Velvetleaf plant response rating: 0
[8]; [12]
  Velvetleaf plant response rating: 0
[8]; [13]
  Plant response rating, Velvetleaf: 0
[8]; [14]
  Plant response rating, Velvetleaf: 0
[9]; [11]
  Pigweed plant response rating: 0
[9]; [12]
  Pigweed plant response rating: 0
[9]; [13]
  Plant response rating, Pigweed: 0
[9]; [14]
  Plant response rating, Pigweed: 0
[10]; [11]
  Barnyardgrass plant response rating: 0
[10]; [12]
  Barnyardgrass plant response rating: 0
[10]; [13]
  Plant response rating, Barnyardgrass: 0
[10]; [14]
  Plant response rating, Barnyardgrass: 0

## Cc1nn(-c2ccc(C(F)(F)F)cc2)nc1Cn1ccc(C(F)(F)C(F)(F)F)n1 [Compound 12]
[1]; [11]
  Wheat plant response rating: 10
[1]; [12]
  Wheat plant response rating: 30
[1]; [13]
  Plant response rating, Wheat: 0
[1]; [14]
  Plant response rating, Wheat: 0
Corn (Zea mays); [11]
  Corn plant response rating: 20
Corn (Zea mays); [12]
  Corn plant response rating: 30
Corn (Zea mays); [13]
  Plant response rating, Corn: 0
Corn (Zea mays); [14]
  Plant response rating, Corn: 10
[2]; [11]
  Foxtail, Giant plant response rating: 50
[2]; [12]
  Foxtail, Giant plant response rating: 70
[2]; [13]
  Plant response rating, Foxtail, Giant: 80
[2]; [14]
  Plant response rating, Foxtail, Giant: 100
[3]; [15]
  Plant response rating, Barnyardgrass: 40
[3]; [17]
  Plant response rating, Barnyardgrass: 60
[4]; [15]
  Plant response rating, Sedge, Umbrella: 50
[4]; [17]
  Plant response rating, Sedge, Umbrella: 80
[5]; [11]
  Morningglory plant response rating: 70
[5]; [12]
  Morningglory plant response rating: 100
[5]; [13]
  Plant response rating, Morningglory: 10
[5]; [14]
  Plant response rating, Morningglory: 40
Rice (Oryza sativa); [15]
  Plant response rating, Rice: 0
Rice (Oryza sativa); [17]
  Plant response rating, Rice: 25
[6]; [15]
  Plant response rating, Ducksalad: 60
[6]; [17]
  Plant response rating, Ducksalad: 70
[7]; [11]
  Crabgrass, Large plant response rating: 50
[7]; [12]
  Crabgrass, Large plant response rating: 90
[7]; [13]
  Plant response rating, Crabgrass, Large: 90
[7]; [14]
  Plant response rating, Crabgrass, Large: 100
[8]; [11]
  Velvetleaf plant response rating: 70
[8]; [12]
  Velvetleaf plant response rating: 100
[8]; [13]
  Plant response rating, Velvetleaf: 60
[8]; [14]
  Plant response rating, Velvetleaf: 70
[9]; [11]
  Pigweed plant response rating: 100
[9]; [12]
  Pigweed plant response rating: 100
[9]; [13]
  Plant response rating, Pigweed: 80
[9]; [14]
  Plant response rating, Pigweed: 100
[10]; [11]
  Barnyardgrass plant response rating: 30
[10]; [12]
  Barnyardgrass plant response rating: 80
[10]; [13]
  Plant response rating, Barnyardgrass: 30
[10]; [14]
  Plant response rating, Barnyardgrass: 80
